In article PMC12653048 (2025) one finds binding and KD data, which are given here for three compounds.

Experiment [1] deals with s12_13_82 (DNA, aptamer) ATACCAGCTTATTCAATTCAGGGCGGTATGAGGCTCGATCAAGGTCGGAGCGAGAATTTTTTCGCGGAGTCGGCTGGATCAGATAGTAAGTGCAATCT
Put plainly: ITC. The following applies: 50 mM Na+, 3 mM Mg2+; BB: 20 mM Tris-acetate, pH 7.4, 25 °C.

Experiment [2] relates to s12_13_82m7 (DNA, aptamer) GCGCGATCAAGGTCGGAGCGTTTTCGCGGAGTCGGCTGGATCGCGC
The experiment can be described thus: ITC. The following applies: 50 mM Na+, 3 mM Mg2+; BB: 20 mM Tris-acetate, pH 7.4, 25 °C.

In experiment [3] the test system is s12_13_82m8 (DNA, aptamer) GCGATCAAGGTCGGAGCGTTTTCGCGAGTCGGCTGGATCGC
Put plainly: ITC. The following applies: 50 mM Na+, 3 mM Mg2+; BB: 20 mM Tris-acetate, pH 7.4, 25 °C.

For experiment [4], the system named is s12_13_82m5 (DNA, aptamer) GCGATCAAGGTCGGAGCGAGTTCGCGGAGTCGGCTGGATCGC
Put plainly: ITC. The following applies: 50 mM Na+, 3 mM Mg2+; BB: 20 mM Tris-acetate, pH 7.4, 25 °C.

Experiment [5] concerns s12_13_82 (DNA, aptamer) ATACCAGCTTATTCAATTCAGGGCGGTATGAGGCTCGATCAAGGTCGGAGCGAGAATTTTTTCGCGGAGTCGGCTGGATCAGATAGTAAGTGCAATCT
Put plainly: CD spectroscopy. The following applies: 50 mM Na acetate, 3 mM Mg2+; BB: 20 mM Tris-acetate, pH 7.4, 25 °C; 2 μM aptamer, 20 μM KANA.

The subject of experiment [6] is s25_Kana6-1 (DNA, aptamer) GACGACGAGGGCCTGAAACTTGCTGGAACGGTTAAAGTCGTC
Put plainly: CD spectroscopy. The note with it: 300 mM Na acetate, 10 mM Mg2+, 5 mM K+; SB3: 50 mM MES-NaOH, pH 7.0, 25 °C; 2 μM aptamer, 20 μM KANA.

Experiment [7] relates to s21_K16 (DNA, aptamer) CGCATACCAGCTTAGTTCAGAATTCATTGGAGCGTGGCGTGGATGCCCGATGAACCGCCCCAGGGTGCAGATAGTAAGTGCAATCTCGGC
Put plainly: CD spectroscopy. The note with it: 100 mM Na acetate, 2 mM Mg2+, 5 mM K+, 1 mM Ca2+; SB2: 20 mM Tris-acetate, pH 7.6, 25 °C; 2 μM aptamer, 20 μM KANA.

Experiment [8] concerns s12_13_82m2 (DNA, aptamer) GCGATCAAGGTCGGAGCGAGAATTTTTTCGCGGAGTCGGCTGGATCGC
Put plainly: ITC. The following applies: 50 mM Na+, 3 mM Mg2+; BB: 20 mM Tris-acetate, pH 7.4, 25 °C.

Experiment [9] concerns s25_Kana6-5 (DNA, aptamer) GACGACGCAGTTGGCTTAGCGTAGGTAAAGGTCGATGTCGTC
The experiment can be described thus: ITC. The following applies: 300 mM Na acetate, 10 mM Mg2+, 5 mM K+; SB3: 50 mM MES-NaOH, pH 7.0, 25 °C.

In experiment [10] the test system is s25_Kana6-1 (DNA, aptamer) GACGACGAGGGCCTGAAACTTGCTGGAACGGTTAAAGTCGTC
Put plainly: ITC. The note with it: 300 mM Na acetate, 10 mM Mg2+, 5 mM K+; SB3: 50 mM MES-NaOH, pH 7.0, 25 °C.

In experiment [11] the test system is s11_Kana2 (DNA, aptamer) CACCTAATACGACTCACTATAGCGGATCCGAAGATGGGGGTTGAGGCTAAGCCGACCGTAAGTTGGGCCGTCTGGCTCGAACAAGCTTGC
Put plainly: ITC. The note with it: 50 mM Na acetate, 5 mM K+, 5 mM Mg2+; SB1: 20 mM Tris-acetate, pH 8.0, 25 °C; 20.8 μM aptamer, 300 μM KANA in syringe; KD above 200 μM undetectable.

In experiment [12] the test system is s25_Kana6-5 (DNA, aptamer) GACGACGCAGTTGGCTTAGCGTAGGTAAAGGTCGATGTCGTC
Put plainly: CD spectroscopy. The following applies: 300 mM Na acetate, 10 mM Mg2+, 5 mM K+; SB3: 50 mM MES-NaOH, pH 7.0, 25 °C; 2 μM aptamer, 20 μM KANA.

Experiment [13] relates to s12_13_82m6 (DNA, aptamer) GCGCGATCAAGGTCGGAGCGCAGTTGCGGAGTCGGCTGGATCGCGC
Put plainly: ITC. The note with it: 50 mM Na+, 3 mM Mg2+; BB: 20 mM Tris-acetate, pH 7.4, 25 °C.

For experiment [14], the system named is s12_13_82m1 (DNA, aptamer) GATCAAGGTCGGAGCGAGAATTTTTTCGCGGAGTCGGCTGGATC
Put plainly: ITC. The following applies: 50 mM Na+, 3 mM Mg2+; BB: 20 mM Tris-acetate, pH 7.4, 25 °C.

Experiment [15] deals with s21_K16 (DNA, aptamer) CGCATACCAGCTTAGTTCAGAATTCATTGGAGCGTGGCGTGGATGCCCGATGAACCGCCCCAGGGTGCAGATAGTAAGTGCAATCTCGGC
Put plainly: ITC. The following applies: 100 mM Na acetate, 2 mM Mg2+, 5 mM K+, 1 mM Ca2+; SB2: 20 mM Tris-acetate, pH 7.6, 25 °C; 30 μM aptamer, 350 μM KANA in syringe; KD above 300 μM undetectable.

As for `CN[C@@H]1[C@H](O[C@H]2[C@H](O[C@H]3[C@H](O)[C@@H](O)[C@H](N=C(N)N)[C@@H](O)[C@@H]3N=C(N)N)O[C@@H](C)[C@]2(O)C=O)O[C@@H](CO)[C@H](O)[C@H]1O`, the binding entry in [1] and in experiment [2] was “no” in each case.
As to `NC[C@@H]1O[C@H](O[C@H]2[C@@H](O)[C@H](O[C@@H]3[C@@H](O)[C@H](N)C[C@H](N)[C@H]3O[C@H]3O[C@H](CN)[C@@H](O)[C@H](O)[C@H]3N)O[C@@H]2CO)[C@H](N)[C@@H](O)[C@@H]1O`, the binding entry in experiment [1] and in [2] was “no” each time.
On to `NC[C@H]1O[C@H](O[C@H]2[C@H](O)[C@@H](O[C@H]3O[C@H](CO)[C@@H](O)[C@H](N)[C@H]3O)[C@H](N)C[C@@H]2N)[C@H](O)[C@@H](O)[C@@H]1O`, for which the KD – broadly, the equilibrium constant for the complex coming apart – in [3] is 0.0022 ± 0.000352 mM; in [4], 0.000106 ± 8.7e-06 mM; in experiment [8], 0.000101 ± 8e-06 mM; in experiment [9], 870 ± 40 nM; in experiment [10], 2230 ± 240 nM; in experiment [13], 0.000519 ± 4.84e-05 mM. The values for the KD in experiment [14], in [1] and in experiment [2] were 96 ± 8.7 nM, 0.00047 ± 4e-05 mM and 0.000109 ± 1.49e-05 mM, respectively. Moreover, the binding entry in experiment [5] is reported as “yes”; in [6], “yes”; in experiment [7] it was “no”; in experiment [11], “no”; in experiment [12], “yes”; in experiment [15], “no”.
